Test results taken from US20140193843A1 (Institut Pasteur, priority 2008, published 2014).
No end group written: not given here.

Assays:
acute mechanical pain = conditions: rat, pin-pain test, compared with morphine; cited from earlier work
[1] = tested on: anti-YQRFSR antibody 3RBF-SAB; experiment: Competitive ELISA immuno-assay for Opiorphin; format: binding, rabbit; conditions: at 500 ng/ml final concentration
Excerpt: Y represents the antibody directed against Sialorphin.
The peptide was coated on the plastic support of the micro-titration plate (96-well-ImmunoPlate, Nunc).
Inter-assay variability was less than 10%.

Substance | pain-suppressive potency (acute mechanical pain) | recognition by the antibody (specificity of the immuno-assay) [1]
QRFSR [Opiorphin, QRFSR] | as effective as morphine | 
QHNPR (Sialorphin; UniProt P13432 29-33, looked up) |  | not recognized
